Counter-ions that a name gives are not always drawn. Like-named read-outs stand apart in the source and are kept apart here.
Target: T1, His6-AspH315–758 (human aspartate/asparagine-β-hydroxylase, AspH) (Homo sapiens, UniProt Q12797)
T1 construct: N-Terminally His6-tagged human AspH315–758 (His6-AspH315–758) was produced in E. coli BL21 (DE3) cells; made in house; host or cells: E. coli BL21 (DE3), pET-28a(+) vector
T1 sequence (Q12797 315-758): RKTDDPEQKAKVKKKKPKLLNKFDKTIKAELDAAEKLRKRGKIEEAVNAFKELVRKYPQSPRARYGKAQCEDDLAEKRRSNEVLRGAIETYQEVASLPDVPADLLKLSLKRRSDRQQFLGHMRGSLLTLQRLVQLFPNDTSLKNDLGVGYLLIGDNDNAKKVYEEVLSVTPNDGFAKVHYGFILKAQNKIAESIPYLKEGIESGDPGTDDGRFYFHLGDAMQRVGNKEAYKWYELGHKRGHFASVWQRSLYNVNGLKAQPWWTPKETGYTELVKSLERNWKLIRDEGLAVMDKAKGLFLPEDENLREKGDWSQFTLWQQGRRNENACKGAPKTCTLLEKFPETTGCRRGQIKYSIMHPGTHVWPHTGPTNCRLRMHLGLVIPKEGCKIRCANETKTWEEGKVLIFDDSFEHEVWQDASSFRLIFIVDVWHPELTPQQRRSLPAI
Experiment: SPE-MS AspH inhibition assay (LOPAC screen at fixed 20 μM and IC50 dose-response), hydroxylation of cyclic peptide hFX-CP101–119
Assay type: biochemical
Settings: for Plate 5 (% inhibition) / Plate 5 (% conversion): plate 5 (Pfitzer), test compounds at fixed 20 μM; for Plate 5 (% conversion): mean conversion DMSO 32.88

[1] = LOPAC compound at 20uM, plate 2, conversion of substrate peptide
[2] = LOPAC compound at 20uM, plate 2, normalised to DMSO and 2,4-PDCA controls, read-out: Plate 2 (% inhibition)
[3] = LOPAC compound at 20uM, plate 3, conversion of substrate peptide
[4] = LOPAC compound at 20uM, plate 2, normalised to DMSO and 2,4-PDCA controls
[5] = LOPAC compound at fixed 20 uM, plate 1, normalised to DMSO and 2,4-PDCA controls
[6] = LOPAC compound at fixed 20 uM, substrate conversion, plate 1
[7] = LOPAC Plate 4, compound at 20 uM, substrate conversion
[8] = LOPAC Plate 4, compound at 20 uM, read-out: % inhibition
[9] = LOPAC Plate 4, compound at 20 uM

CNCCC(Oc1ccc(C(F)(F)F)cc1)c1ccccc1 (stereo not shown) [Fluoxetine hydrochloride]
Plate 2 (% conversion) [1]: 43.85% | inhibition at 20 µM [2]: -23.6%

CC(C)Cc1ccc([C@H](C)C(=O)O)cc1 [S(+)-Ibuprofen]
Plate 3 (% conversion) [3]: 38.99%

COCCc1ccc(OCC(O)CNC(C)C)cc1.O=C(O)C(O)C(O)C(=O)O (racemic) [(±)-Metoprolol (+)-tartrate]
Plate 3 (% conversion) [3]: 16.57%

O=c1[nH]c(=S)[nH]c(-c2ccccc2)c1Cc1c(O)ccc2ccccc12 [Cambinol]
Plate 2 (% conversion) [1]: 25.50% | inhibition at 20 µM [2]: 31.2%

CC(=O)O[C@H]1C[C@@]2(C)[C@@H](C[C@@H](O)[C@H]3[C@@]4(C)CC[C@@H](O)[C@@H](C)[C@@H]4CC[C@@]32C)/C1=C(\CCC=C(C)C)C(=O)[O-].[Na+] [Fusidic acid sodium]
Plate 2 (% conversion) [1]: 40.54% | Plate 2 (% inhibition) [4]: -13.68%

Brc1ccc([C@H]2CN3CCSC3=N2)cc1.O=C(O)C(=O)O [S(-)-p-Bromotetramisole oxalate]
Plate 1 (% inhibition) [5]: 75.43% | Plate 1 (% conversion) [6]: 10.54%

COc1ccccc1N1CCN(CCN(C(=O)c2ccc(F)cc2)c2ccccn2)CC1.Cl.Cl [p-MPPF dihydrochloride]
Plate 3 (% conversion) [3]: 43.58%

CC1(C(=O)O)C2CCC(O2)C1(C)C(=O)O (stereo not shown) [Cantharidic Acid]
Plate 1 (% conversion): 25.92% | Plate 1 (% inhibition): 29.65%

COc1ccc(C2(O)OC(=O)C(c3ccc4c(c3)OCO4)=C2Cc2cc(OC)c(OC)c(OC)c2)cc1 (stereo not shown) [PD-156707]
% conversion [7]: 36.15% | inhibition at 20 µM [8]: 0.95% | Plate 5 (% inhibition): 18.88% | Plate 5 (% conversion): 29.89%

CC(=O)OCC1=C(C(=O)O)N2C(=O)[C@@H](NC(=O)Cc3cccs3)[C@H]2SC1 [Cephalothin sodium]
Plate 1 (% inhibition) [5]: 9.86% | Plate 1 (% conversion) [6]: 32.56%

O=C(C1CCCCC1)N1CC(=O)N2CCc3ccccc3C2C1 (stereo not shown) [Praziquantel]
Plate 3 (% conversion) [3]: 41.06%

C=CC(N)CCC(=O)O (racemic) [(±)-gamma-Vinyl GABA]
% conversion [7]: 37.96%

CC1=NN=C(c2ccc(N)cc2)c2cc3c(cc2C1)OCO3.Cl [GYKI 52466 hydrochloride]
Plate 2 (% conversion): 38.91% | Plate 2 (% inhibition) [4]: -8.84%

CCCCS(=N)(=O)CC[C@H](N)C(=O)O (stereo partly drawn) [L-Buthionine-sulfoximine]
Plate 1 (% inhibition) [5]: 3.50% | Plate 1 (% conversion) [6]: 34.70%

O=C1Cc2c([nH]c3ccc(Br)cc23)-c2ccccc2N1 [Kenpaullone]
Plate 3 (% conversion) [3]: 35.01%

NC(=NCc1ccccc1)NC(=O)c1nc(Cl)c(N)nc1N [Benzamil hydrochloride]
Plate 1 (% inhibition) [5]: 8.35% | Plate 1 (% conversion) [6]: 33.07%

CCc1cccc2c3c([nH]c12)C(CC)(CC(=O)O)OCC3 (stereo not shown) [Etodolac]
Plate 2 (% conversion) [1]: 36.91% | inhibition at 20 µM [2]: -2.84%

CCOC(=O)[N-]c1cn(N2CCOCC2)n[o+]1 [Molsidomine]
Plate 3 (% conversion): 34.83%

COc1cccc(C(=O)NCCN2CCN(c3ccc(Cl)cc3)CC2)c1
Plate 1 (% inhibition) [5]: -7.35% | Plate 1 (% conversion) [6]: 38.34%

Picrotoxin
Plate 3 (% conversion): 36.08%

CCCC(C(=O)OCCN(CC)CC)(c1ccccc1)c1ccccc1.Cl [SKF-525A hydrochloride]
Plate 3 (% conversion) [3]: 49.23%

Cc1cc2c(cc1Cl)N(C(=O)Nc1ccc(Oc3cccnc3C)nc1)CC2.Cl.Cl.O [SB 242084 dihydrochloride hydrate]
Plate 3 (% conversion) [3]: 37.92%

N=C(N)NC(=O)c1nc(Cl)c(N)nc1N [Amiloride hydrochloride]
Plate 1 (% inhibition) [5]: 4.62% | Plate 1 (% conversion) [6]: 34.32%

CN(C)CCCN1c2ccccc2Sc2ccc(Cl)cc21 [Chlorpromazine hydrochloride]
Plate 1 (% inhibition) [5]: -29.45% | Plate 1 (% conversion) [6]: 45.76%

CN1CCc2cccc3c2[C@H]1Cc1ccc(O)c(O)c1-3 [Apomorphine hydrochloride hemihydrate]
Plate 1 (% inhibition) [5]: 80.27% | Plate 1 (% conversion) [6]: 8.92%

CNC[C@H](O)c1cccc(O)c1 [Phenylephrine hydrochloride]
Plate 3 (% conversion) [3]: 35.74%

Cl.NNC(N)=O [Semicarbazide hydrochloride]
% conversion: 22.57%

CN(C)c1nc(N)c(C(=O)NC(=N)N)nc1Cl [5-(N,N-Dimethyl)amiloride hydrochloride]
Plate 1 (% inhibition) [5]: -6.54% | Plate 1 (% conversion) [6]: 38.07%

CC(=O)N1CCN(c2ccc(OCC3COC(Cn4ccnc4)(c4ccc(Cl)cc4Cl)O3)cc2)CC1 (stereo not shown) [Ketoconazole]
Plate 3 (% conversion): 46.43%

Nc1ncnc2c1nc(Sc1ccc(Cl)cc1)n2C1OC2COP(=O)(O)OC2C1O (stereo in doubt) [8-(4-Chlorophenylthio)-cAMP sodium]
Plate 1 (% inhibition) [5]: -2.91% | Plate 1 (% conversion) [6]: 36.85%

CC(C)(C=O)Cc1cc(C(C)(C)C)c(O)c(C(C)(C)C)c1 [CGP-13501]
Plate 1 (% inhibition) [5]: 0.58% | Plate 1 (% conversion) [6]: 35.68%

O=C(O)c1cc(O)cc(C(=O)O)n1 [Chelidamic acid]
Plate 1 (% inhibition) [5]: 48.94% | Plate 1 (% conversion) [6]: 19.44%

O=C(c1cc(O)c(O)c([N+](=O)[O-])c1)c1ccccc1F [Ro 41-0960, reference compound]
% inhibition [9]: 97.80% | % conversion [7]: 3.09%

CNCC[C@@H](Oc1ccccc1C)c1ccccc1 [Tomoxetine]
% conversion [7]: 38.97% | inhibition at 20 µM [8]: -7.33%

Cl.Clc1ccc(Cn2c(CN3CCCC3)nc3ccccc32)cc1 [Clemizole hydrochloride]
Plate 1 (% inhibition) [5]: -13.99% | Plate 1 (% conversion) [6]: 40.57%

CN(C)C(=O)Oc1cccc([N+](C)(C)C)c1 [Neostigmine bromide]
Plate 3 (% conversion): 40.63%

Oc1cccc2c(O)nccc12 [1,5-Isoquinolinediol]
Plate 3 (% conversion) [3]: 40.11%

CC(=O)c1cccc(N[C@H]2[C@H](N)[C@@](NC(=O)N(C)C)([C@H](C)O)[C@@](C)(O)[C@@]2(O)COC(=O)c2c(C)cccc2O)c1 [Pactamycin]
Plate 5 (% inhibition): 21.27% | Plate 5 (% conversion): 29.07%

CCCCCCCCCCCCCC(=O)O[C@@H]1[C@@H](C)[C@@]2(O)[C@@H](C=C(CO)C[C@]3(O)C(=O)C(C)=C[C@@H]23)[C@@H]2C(C)(C)[C@]12OC(C)=O [Phorbol 12-myristate 13-acetate]
% conversion: 39.27%

Nc1nc2c(c(=O)[nH]1)C[C@@H](CCc1ccc(C(=O)N[C@@H](CCC(=O)O)C(=O)O)cc1)CN2.O [Lometrexol hydrate]
Plate 3 (% conversion): 27.08%

CCCN1C[C@H](CSC)C[C@@H]2c3cccc4[nH]cc(c34)C[C@H]21 [Pergolide methanesulfonate]
% conversion [7]: 40.48% | inhibition at 20 µM [8]: -11.8%

CCCCc1ncc(/C=C(\Cc2cccs2)C(=O)O)n1Cc1ccc(C(=O)O)cc1 [Eprosartan mesylate]
Plate 3 (% conversion) [3]: 33.79%

CC(Cc1ccc(O)cc1)NCC(O)c1cc(O)cc(O)c1 (stereo not shown) [Fenoterol hydrobromide]
Plate 2 (% conversion): 38.93% | inhibition at 20 µM (read-out: Plate 2 (% inhibition)): -8.89%

O=c1c2ccccc2[nH]c(=S)n1CCN1CCC(=C(c2ccc(F)cc2)c2ccc(F)cc2)CC1 [Diacylglycerol Kinase Inhibitor II]
Plate 2 (% conversion) [1]: 21.33% | inhibition at 20 µM [2]: 43.7%

CCCN(CCC)C1Cc2cc(OC)c(OC)cc2C1.O=C(O)/C=C\C(=O)O [U-99194A maleate]
% inhibition [9]: 4.59% | % conversion [7]: 34.90%

OC[C@H]1O[C@@H](n2cnc3c(NC4CCCC4)ncnc32)[C@H](O)[C@@H]1O [N6-Cyclopentyladenosine]
Plate 1 (% inhibition) [5]: -4.07%

NC1CCN(O)C1=O (racemic) [(±)-HA-966]
Plate 1 (% conversion): 36.52% | Plate 1 (% inhibition): -1.94%

CCCCCCCCc1ccc(-c2ccc(C(=O)O)cc2)cc1 [AC-55649]
% conversion: 33.36% | % inhibition (20 µM): 9.11%
